20 compounds from US20250163038A1, “CBL-B MODULATORS AND USES THEREOF” (Nimbus Clio, Inc., priority 2021, published 2025) can be followed below.

Where two headings read alike, the source gives them in different places. Bounds are passed on as bounds.

The test system of assay [1] is Jurkat (clone E6-1) cells with NFAT luciferase reporter. The assay is described as follows: Jurkat reporter assay (NFAT Luciferase). It counts as cell-based. The note with it: Homo sapiens.
Assay [2] addresses T1, Recombinant human c-Cbl (aa 47-435) (Homo sapiens, UniProt P22681).
T1 sequence (P22681 47-435): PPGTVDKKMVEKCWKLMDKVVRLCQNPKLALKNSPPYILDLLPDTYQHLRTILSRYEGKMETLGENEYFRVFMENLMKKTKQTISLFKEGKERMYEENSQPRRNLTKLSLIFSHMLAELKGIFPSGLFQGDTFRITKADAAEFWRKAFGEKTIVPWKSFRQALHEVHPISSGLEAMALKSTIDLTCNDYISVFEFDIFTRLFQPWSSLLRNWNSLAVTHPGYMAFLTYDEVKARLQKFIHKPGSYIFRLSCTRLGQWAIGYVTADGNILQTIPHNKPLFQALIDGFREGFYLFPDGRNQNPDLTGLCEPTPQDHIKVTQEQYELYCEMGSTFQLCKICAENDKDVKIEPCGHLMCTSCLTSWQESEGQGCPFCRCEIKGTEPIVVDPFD
The experiment in a line: c-Cbl Biochemical Assay (TR-FRET).

In assay [3] the target is Recombinant human Cbl-b (aa 36-427) (Homo sapiens, UniProt Q13191). The experiment in a line: Cbl-b Biochemical Assay (TR-FRET).
[4] abbreviates: Jurkat NFAT luciferase reporter cells, anti-CD3 stimulation, 6 hr, read-out: Jurkat NFAT EC50.
Where [5] appears, read: hc-Cbl Biochemical Assay (TR-FRET), read-out: TR-FRET hcCbl IC50.

Chain of Recombinant human Cbl-b (aa 36-427) (Q13191 36-427): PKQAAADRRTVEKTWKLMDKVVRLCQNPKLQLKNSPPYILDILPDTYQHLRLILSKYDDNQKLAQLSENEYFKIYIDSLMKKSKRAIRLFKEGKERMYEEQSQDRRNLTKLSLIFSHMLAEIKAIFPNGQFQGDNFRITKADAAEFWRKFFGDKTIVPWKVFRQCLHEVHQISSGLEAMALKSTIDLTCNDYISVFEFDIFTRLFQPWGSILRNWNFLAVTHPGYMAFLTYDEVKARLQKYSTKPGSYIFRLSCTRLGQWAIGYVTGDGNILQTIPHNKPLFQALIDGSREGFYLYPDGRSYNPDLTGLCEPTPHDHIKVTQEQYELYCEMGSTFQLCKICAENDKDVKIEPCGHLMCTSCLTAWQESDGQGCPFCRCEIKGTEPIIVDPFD

`COc1cc(CN[C@@H]2CCC[C@@H]2O)cn2nc(-c3cccc(-c4ccc(F)cc4-c4nncn4C)c3)nc12` [IH-9, (1S,2R)-2-(((2-(4′-Fluoro-2′-(4-methyl-4H-1,2,4-triazol-3-yl)-[1,1′-biphenyl]-3-yl)-8-methoxy-[1,2,4]triazolo[1,5-a]pyridin-6-yl)methyl)amino)cyclopentan-1-ol]: the EC50 in assay [1] (setting [4]) is 0.2 to 1 µM. Moreover, the IC50 in assay [2] (setting [5]) and in assay [3] (read-out: TR-FRET hCbl-b IC50) was < 200 nM throughout.
Take `Cn1cnnc1-c1cc(F)ccc1-c1cccc(-c2nc3cc(CN[C@@H]4CCC[C@@H]4O)cc(Cl)c3o2)c1` [HG-7, (1S,2R)-2-(((7-Chloro-2-(4′-fluoro-2′-(4-methyl-4H-1,2,4-triazol-3-yl)-[1,1′-biphenyl]-3-yl)benzo[d]oxazol-5-yl)methyl)amino)cyclopentan-1-ol]: the EC50 in assay [1] (Jurkat, 6 h, read-out: Jurkat NFAT EC50 (μM)) was < 0.2 µM. In addition, the IC50 in assay [2] (setting [5]) and in assay [3] (read-out: TR-FRET hCbl-b IC50) was < 200 nM throughout.
With `Cn1cnnc1-c1cc(F)ccc1-c1cc(-c2nc3cc(CO)cc(F)c3o2)nc(C2CC2)c1` [AFA-2, (2-{6-Cyclopropyl-4-[4-fluoro-2-(4-methyl-1,2,4-triazol-3-yl)phenyl]pyridin-2-yl}-7-fluoro-1,3-benzoxazol-5-yl)methanol], the EC50 in assay [1] (setting [4]) fell in the range of 1 to 10 µM. For the same compound, the 50% inhibitory concentration (IC50) in assay [2] (setting [5]) and in assay [3] (read-out: TR-FRET hCbl-b IC50) was 200 to 1000 nM each time.
`C[C@H](c1cc(C(F)(F)F)c2[nH]c(-c3cccc(C4(Cc5nncn5C)COC4)c3)nc2c1)N1CCC2(CC2)C1` [ACN-1, (R)-5-(1-(5-Azaspiro[2.4]heptan-5-yl)ethyl)-2-(3-(3-((4-methyl-4H-1,2,4-triazol-3-yl)methyl)oxetan-3-yl)phenyl)-7-(trifluoromethyl)-1H-benzo[d]imidazole]: the EC50 in assay [1] (setting [4]) was 1 to 10 µM. Moreover, the half-inhibitory concentration (IC50) in assay [2] (setting [5]) and in assay [3] (read-out: TR-FRET hCbl-b IC50) was 200 to 1000 nM throughout.
Turning to `Cn1cnnc1-c1cc(F)ccc1-c1cccc(-c2nc3cc(CNCC4(C#N)CCCC4)cc(C(F)(F)F)c3[nH]2)c1` [CS-1, 1-((((2-(4′-Fluoro-2′-(4-methyl-4H-1,2,4-triazol-3-yl)-[1,1′-biphenyl]-3-yl)-7-(trifluoromethyl)-1H-benzo[d]imidazol-5-yl)methyl)amino)methyl)cyclopentane-1-carbonitrile], in assay [1] (setting [4]), the EC50 fell in the range of 0.2 to 1 µM. Also, the 50% inhibitory concentration (IC50) in assay [2] (setting [5]) and in assay [3] (read-out: TR-FRET hCbl-b IC50) was < 200 nM throughout.
For the compound `COC[C@@H](C)NCc1cc(F)c2oc(-c3cc(-c4ccc(F)cc4-c4nncn4C)cc(C4CC4)n3)nc2c1` [AFV-1, [(2-{6-Cyclopropyl-4-[4-fluoro-2-(4-methyl-1,2,4-triazol-3-yl)phenyl]pyridin-2-yl}-7-fluoro-1,3-benzoxazol-5-yl)methyl][(2R)-1-methoxypropan-2-yl]amine], in assay [1] (setting [4]), the EC50 was in the range of 0.2 to 1 µM. Moreover, the values for the IC50 in assay [2] (setting [5]) and in assay [3] (read-out: TR-FRET hCbl-b IC50) were 200 to 1000 nM and < 200 nM, respectively.
The like results for `Cn1cnnc1-c1cc(F)ccc1-c1cccc(-c2nc3cc(CNC[C@@H]4CCC(=O)N4)cc(C(F)(F)F)c3o2)c1` [CU-2, (S)-5-((((2-(4′-Fluoro-2′-(4-methyl-4H-1,2,4-triazol-3-yl)-[1,1′-biphenyl]-3-yl)-7-(trifluoromethyl)benzo[d]oxazol-5-yl)methyl)amino)methyl)pyrrolidin-2-one] were, in that order, 0.2 to 1 µM, < 200 nM and < 200 nM.
As for `CC(c1cc(C(F)(F)F)c2[nH]c(-c3cccc(C4(Cc5nncn5C)COC4)c3)nc2c1)N1CCC2(CC2)C1` (stereo not drawn) [ACK-3, 5-(1-(5-Azaspiro[2.4]heptan-5-yl)ethyl)-2-(3-(3-((4-methyl-4H-1,2,4-triazol-3-yl)methyl)oxetan-3-yl)phenyl)-7-(trifluoromethyl)-1H-benzo[d]imidazole], the half-maximal effective concentration (EC50) in assay [1] (setting [4]) lay in the range of 1 to 10 µM. The IC50 in assay [2] (setting [5]) lay within 10000 to 50000 nM; in assay [3] (read-out: TR-FRET hCbl-b IC50), 200 to 1000 nM.
On the same counts, the results for `Cn1cnnc1-c1cc(Cl)ccc1-c1cc(-c2nc3cc(CNCC4(O)CCC4)ccc3o2)nc(C2CC2)c1` [ADT-12, 1-({[(2-{4-[4-Chloro-2-(4-methyl-1,2,4-triazol-3-yl)phenyl]-6-cyclopropylpyridin-2-yl}-1,3-benzoxazol-5-yl)methyl]amino}methyl)cyclobutan-1-ol] are < 0.2 µM, < 200 nM and < 200 nM.
On the same counts, the results for `Cn1cnnc1-c1cc(F)ccc1-c1cccc(-c2nc3cc(CN4CO[C@H]5CCC[C@H]54)cc(C(F)(F)F)c3o2)c1` [EH-1, 2-(4′-Fluoro-2′-(4-methyl-4H-1,2,4-triazol-3-yl)-[1,1′-biphenyl]-3-yl)-5-(((3aR,6aS)-tetrahydro-2H-cyclopenta[d]oxazol-3(3aH)-yl)methyl)-7-(trifluoromethyl)benzo[d]oxazole] are < 0.2 µM, < 200 nM and < 200 nM.
With `Cn1cnnc1-c1cc(F)ccc1-c1cc(-c2nc3cc(CN[C@@H]4CCC[C@]4(C)O)cc(F)c3o2)nc(C2CC2)c1` [AFL-2, (1S,2R)-2-(((2-(6-Cyclopropyl-4-(4-fluoro-2-(4-methyl-4H-1,2,4-triazol-3-yl)phenyl)pyridin-2-yl)-7-fluorobenzo[d]oxazol-5-yl)methyl)amino)-1-methylcyclopentan-1-ol], the 50% effective concentration (EC50) in assay [1] (setting [4]) lay in the range of 1 to 10 µM. Also, the IC50 is 200 to 1000 nM in assay [2] and < 200 nM in assay [3].
On to `Cn1cnnc1-c1cc(F)ccc1-c1cccc(-c2nc3ccc(CN[C@@H]4CCC[C@@H]4O)cc3s2)c1` [EK-5, (1S,2R)-2-(((2-(4′-Fluoro-2′-(4-methyl-4H-1,2,4-triazol-3-yl)-[1,1′-biphenyl]-3-yl)benzo[d]thiazol-6-yl)methyl)amino)cyclopentan-1-ol], for which, in assay [1] (setting [4]), the half-maximal effective concentration (EC50) is 1 to 10 µM. Further, the IC50 in assay [2] (setting [5]) and in assay [3] (read-out: TR-FRET hCbl-b IC50) was 1000 to 10000 nM each time.
For `Cn1cnnc1-c1cc(F)ccc1-c1cccc(-c2nc3cc(CO)cc(C(F)(F)F)c3o2)c1` [Example X-2, (2-(4′-Fluoro-2′-(4-methyl-4H-1,2,4-triazol-3-yl)-[1,1′-biphenyl]-3-yl)-7-(trifluoromethyl)benzo[d]oxazol-5-yl)methanol], the concentration giving a half-maximal response (EC50) in assay [1] (setting [4]) fell in the range of 1 to 10 µM. For the same compound, the IC50 is 1000 to 10000 nM in assay [2] (setting [5]) and < 200 nM in assay [3] (read-out: TR-FRET hCbl-b IC50).
`COCCNCc1ccc2oc(-c3cccc(-c4ccc(F)cc4-c4nncn4C)c3)nc2c1` [DZ-1, N-((2-(4′-Fluoro-2′-(4-methyl-4H-1,2,4-triazol-3-yl)-[1,1′-biphenyl]-3-yl)benzo[d]oxazol-5-yl)methyl)-2-methoxyethan-1-amine]: the EC50 in assay [1] (setting [4]) lay within 1 to 10 µM. Further, the IC50 in assay [2] (setting [5]) and in assay [3] (read-out: TR-FRET hCbl-b IC50) was 200 to 1000 nM in each case.
For `COCCNC(COC)c1cc(C)c2oc(-c3cccc(-c4ccc(F)cc4-c4nncn4C)c3)nc2c1` (stereo not drawn) [JK-7, 1-(2-(4′-Fluoro-2′-(4-methyl-4H-1,2,4-triazol-3-yl)-[1,1′-biphenyl]-3-yl)-7-methylbenzo[d]oxazol-5-yl)-2-methoxy-N-(2-methoxyethyl)ethan-1-amine], the 50% effective concentration (EC50) in assay [1] (setting [4]) lay within 1 to 10 µM. For the same compound, the 50% inhibitory concentration (IC50) is 200 to 1000 nM in assay [2] (setting [5]) and < 200 nM in assay [3] (read-out: TR-FRET hCbl-b IC50).
Consider `Cn1cnnc1-c1cc(F)ccc1-c1cccc(-c2nc3cc(CNCC(C)(C)O)ccc3o2)c1` [AO-2, 1-(((2-(4′-Fluoro-2′-(4-methyl-4H-1,2,4-triazol-3-yl)-[1,1′-biphenyl]-3-yl)benzo[d]oxazol-5-yl)methyl)amino)-2-methylpropan-2-ol], for which the concentration for a half-maximal effect (EC50) in assay [1] (setting [4]) was in the range of 0.2 to 1 µM. The results for the concentration for half-maximal inhibition (IC50) in assay [2] (setting [5]) and in assay [3] (read-out: TR-FRET hCbl-b IC50) were 1000 to 10000 nM and < 200 nM, respectively.
Take `Cn1cnnc1-c1cc(F)ccc1-c1cccc(-c2nc3cc(C(NCC4CCC4)C(F)(F)F)cc(F)c3o2)c1` (racemic) [IL-6, rac-N-(Cyclobutylmethyl)-2,2,2-trifluoro-1-(7-fluoro-2-(4′-fluoro-2′-(4-methyl-4H-1,2,4-triazol-3-yl)-[1,1′-biphenyl]-3-yl)benzo[d]oxazol-5-yl)ethan-1-amine]: in assay [1] (setting [4]), the EC50 was in the range of 0.2 to 1 µM. Besides, the IC50 in assay [2] (setting [5]) and in assay [3] (read-out: TR-FRET hCbl-b IC50) was 1000 to 10000 nM throughout.
For `COc1cc(CN[C@@H]2CCC[C@@H]2O)cc2nc(-c3cccc([C@]4(c5nncn5C)C[C@@H](C)C4)c3)oc12` [AEC-2], the half-maximal effective concentration (EC50) in assay [1] (setting [4]) fell in the range of 0.2 to 1 µM. In addition, the 50% inhibitory concentration (IC50) in assay [2] (setting [5]) and in assay [3] (read-out: TR-FRET hCbl-b IC50) was < 200 nM throughout.
Take `Cn1cnnc1-c1cc(F)ccc1-c1cccc(-c2nc3ccc(CN[C@@H]4CCC[C@@H]4O)cn3n2)c1` [GK-5, (1S,2R)-2-(((2-(4′-Fluoro-2′-(4-methyl-4H-1,2,4-triazol-3-yl)-[1,1′-biphenyl]-3-yl)-[1,2,4]triazolo[1,5-a]pyridin-6-yl)methyl)amino)cyclopentan-1-ol, Formic Acid]: in assay [1] (setting [4]), the EC50 was in the range of 1 to 10 µM. Also, the figures for the half-inhibitory concentration (IC50) in assay [2] (setting [5]) and in assay [3] (read-out: TR-FRET hCbl-b IC50) were 200 to 1000 nM and < 200 nM, respectively.
For the compound `COC(C)(C)CNCc1cc(C(F)(F)F)c2oc(-c3cccc(-c4ccc(F)cc4-c4nncn4C)c3)nc2c1` [AI-2, N-((2-(4′-Fluoro-2′-(4-methyl-4H-1,2,4-triazol-3-yl)-[1,1′-biphenyl]-3-yl)-7-(trifluoromethyl)benzo[d]oxazol-5-yl)methyl)-2-methoxy-2-methylpropan-1-amine], the 50% effective concentration (EC50) in assay [1] (setting [4]) is 0.2 to 1 µM. Besides, the IC50 in assay [2] (setting [5]) was 1000 to 10000 nM; in assay [3] (read-out: TR-FRET hCbl-b IC50), < 200 nM.
